In PMC12442245, “Activity Analysis of the P2X Receptor Antagonist PPADS against Signal Transducer and Activator of Transcription Proteins” (Chembiochem, 2025) one finds IC50 data, which are given here for two molecules.

Molecules are shown by their SMILES. Non-standard residues stand in square brackets, D forms with d. Residues, ends and D or L forms follow the SMILES beside them. pY = N[C@@H](Cc1ccc(OP(=O)(O)O)cc1)C(=O)O

Common to all, as to type: binding
One assay deals with T1, STAT5a (Homo sapiens, UniProt P42229).
T1 sequence (P42229 1-794): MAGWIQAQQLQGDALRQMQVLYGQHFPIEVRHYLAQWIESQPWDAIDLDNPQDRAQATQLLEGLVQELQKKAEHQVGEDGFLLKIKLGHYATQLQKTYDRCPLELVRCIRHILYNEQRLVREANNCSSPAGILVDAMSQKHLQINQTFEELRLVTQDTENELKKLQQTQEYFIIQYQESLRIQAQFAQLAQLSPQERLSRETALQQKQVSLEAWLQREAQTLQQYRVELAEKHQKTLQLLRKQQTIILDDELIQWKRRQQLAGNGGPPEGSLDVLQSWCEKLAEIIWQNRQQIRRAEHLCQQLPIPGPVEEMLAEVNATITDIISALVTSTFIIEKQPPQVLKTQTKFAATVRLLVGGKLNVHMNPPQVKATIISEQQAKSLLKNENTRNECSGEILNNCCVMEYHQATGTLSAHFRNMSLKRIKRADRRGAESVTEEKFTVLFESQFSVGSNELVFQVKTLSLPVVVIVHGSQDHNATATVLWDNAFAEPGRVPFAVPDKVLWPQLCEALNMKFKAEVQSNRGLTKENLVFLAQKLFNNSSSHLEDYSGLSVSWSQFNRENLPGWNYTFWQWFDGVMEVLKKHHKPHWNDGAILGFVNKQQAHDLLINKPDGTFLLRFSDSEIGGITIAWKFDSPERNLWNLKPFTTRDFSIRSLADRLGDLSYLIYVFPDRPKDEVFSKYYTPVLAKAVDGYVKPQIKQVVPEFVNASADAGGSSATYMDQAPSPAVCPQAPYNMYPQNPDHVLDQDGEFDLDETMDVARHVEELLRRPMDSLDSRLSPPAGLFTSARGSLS
Description: HTRF assay, STAT5a. Conditions: STAT5a 110 nM, without reducing agent, 1 h. The text has this: (§1) The azo dyes PPADS and iso‐PPADS have a deep red color in aqueous solution. […] In order to exclude this possibility, we established homogeneous time‐resolved fluorescence resonance energy transfer (HTRF) assays to confirm the degree of binding between STAT4, STAT5a, and STAT5b and the respective 5‐carboxyfluorescein‐labeled binding peptides used in the FP assay. In addition, an HTRF assay was established for STAT3, one of the STAT proteins targeted to a lesser extent in FP assays, as a specificity control (Figure 1B,C). The STAT protein constructs each contain a 6x‐His‐tag.^[ [15], [16], [17], [22] ^] A Tb^3+‐cryptate fused to an anti‐6x‐His antibody was chosen as the long‐lived fluorescent donor, while the carboxyfluorescein linked to the respective STAT‐binding peptides served as the acceptor (Figure 2A). Emission was measured with a time delay of 60 μs after excitation, allowing any initial compound fluorescence to decay beforehand. […]
(§2) Screening of chemical libraries comprising approximately 5000 known bioactive compounds in fluorescence polarization-based assays against phosphorylation-dependent protein-protein interaction domains, including STAT proteins, has been described.[1] […]
(§3) Fluorescence polarization assays
(§4) Competitive fluorescence polarization (FP) assays for STAT1,[2] […] Briefly, peptide binding to proteins was analyzed using the following carboxyfluorescein (CF) -labelled pepti des at a concentration of 10 nM: STAT1: 5-CF-GpYDKPHVL-OH, STAT3: 5-CF-GpYLPQTV -NH2, STAT4: 5-CF-GpYLPQNID-OH, STAT5a and STAT5b: 5-CF-GpYLVLDKW-OH, STAT6: 5- […]
(§5) CFGp[…]-OH. […] FP was measured using an Infinite F500 plate reader (Tecan) and measurements were converted into percent inhibition according to the binding curve equation. Curves were plotted and best fits calculated using OriginPro […]
(§6) Homogenous time-resolved fluorescence (HTRF) assays for STAT3, STAT4, STAT5a and STAT5b were carried out using Cisbio Monoclonal Antibody Anti-6His-Tb Gold as the fluorescence donor (Perkin Elmer) and the corresponding CF-labelled binding peptide as the acceptor. […] The average reading from 3 wells was obtained. […]

The target of another assay is T2, STAT5b (Homo sapiens, UniProt P51692).
T2 sequence (P51692 1-787): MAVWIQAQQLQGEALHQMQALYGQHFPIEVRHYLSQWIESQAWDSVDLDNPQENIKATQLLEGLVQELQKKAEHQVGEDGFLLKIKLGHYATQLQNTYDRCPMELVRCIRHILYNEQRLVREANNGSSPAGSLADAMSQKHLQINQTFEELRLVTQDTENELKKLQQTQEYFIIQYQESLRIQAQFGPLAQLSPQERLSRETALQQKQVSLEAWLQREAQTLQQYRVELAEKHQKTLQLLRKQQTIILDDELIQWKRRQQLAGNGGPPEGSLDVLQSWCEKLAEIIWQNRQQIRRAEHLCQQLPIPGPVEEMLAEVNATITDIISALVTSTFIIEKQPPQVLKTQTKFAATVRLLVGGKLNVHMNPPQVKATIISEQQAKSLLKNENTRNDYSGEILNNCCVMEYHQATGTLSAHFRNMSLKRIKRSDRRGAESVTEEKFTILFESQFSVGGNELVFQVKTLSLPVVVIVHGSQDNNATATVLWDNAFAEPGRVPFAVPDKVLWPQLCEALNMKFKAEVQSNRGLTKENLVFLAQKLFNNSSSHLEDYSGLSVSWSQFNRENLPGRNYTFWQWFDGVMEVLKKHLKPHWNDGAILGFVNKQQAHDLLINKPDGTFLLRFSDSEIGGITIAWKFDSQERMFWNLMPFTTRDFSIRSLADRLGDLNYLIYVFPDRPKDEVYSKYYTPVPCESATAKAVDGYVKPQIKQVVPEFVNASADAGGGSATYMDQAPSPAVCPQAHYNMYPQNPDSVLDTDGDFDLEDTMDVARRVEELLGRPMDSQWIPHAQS
Briefly: HTRF assay, STAT5b. Conditions: STAT5b 80 nM, without reducing agent, 1 h.
Description: as §1, §2, §3, §4, §5, §6

In the next assay the target is T3, STAT4 (Homo sapiens, UniProt Q14765).
T3 sequence (Q14765 1-748): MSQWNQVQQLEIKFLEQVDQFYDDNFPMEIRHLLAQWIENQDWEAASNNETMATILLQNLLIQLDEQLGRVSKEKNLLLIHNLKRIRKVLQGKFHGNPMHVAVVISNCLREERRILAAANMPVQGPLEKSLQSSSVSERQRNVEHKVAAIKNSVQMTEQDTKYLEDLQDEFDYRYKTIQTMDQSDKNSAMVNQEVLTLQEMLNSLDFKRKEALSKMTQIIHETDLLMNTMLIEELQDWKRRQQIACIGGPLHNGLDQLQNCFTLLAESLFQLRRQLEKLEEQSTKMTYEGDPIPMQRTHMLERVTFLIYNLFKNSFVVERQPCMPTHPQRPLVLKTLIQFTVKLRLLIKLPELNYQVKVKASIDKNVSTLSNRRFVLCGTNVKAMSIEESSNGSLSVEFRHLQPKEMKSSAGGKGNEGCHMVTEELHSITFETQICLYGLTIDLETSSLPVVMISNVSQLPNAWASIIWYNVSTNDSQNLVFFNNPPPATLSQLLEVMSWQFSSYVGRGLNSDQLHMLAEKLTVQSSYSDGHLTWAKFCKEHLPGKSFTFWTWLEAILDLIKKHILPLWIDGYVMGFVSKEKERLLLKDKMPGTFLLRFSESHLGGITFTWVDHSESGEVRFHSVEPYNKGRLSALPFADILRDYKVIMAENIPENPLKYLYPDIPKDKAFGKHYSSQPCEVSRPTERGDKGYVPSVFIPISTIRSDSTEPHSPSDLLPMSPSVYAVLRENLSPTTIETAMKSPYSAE
Briefly: HTRF assay, STAT4. Conditions: STAT4 30 nM, without reducing agent, 1 h.
Description: as §1, §2, §3, §4, §5, §6
In general terms: Time-resolved FRET reads energy transfer from a long-lived donor to a nearby acceptor.

Regarding `CC(C)C[C@H](NC(=O)[C@H](Cc1c[nH]c2ccccc12)NC(=O)[C@H](CCCCN)NC(=O)[C@H](CC(=O)O)NC(=O)[C@H](CC(C)C)NC(=O)[C@@H](NC(=O)[C@H](CC(C)C)NC(=O)[C@H](Cc1ccc(OP(=O)(O)O)cc1)NC(=O)[C@@H](NC(=O)[C@@H](N)CC(=O)O)[C@@H](C)O)C(C)C)C(=O)O` (H-DT[pY]LVLDKWL-OH), the figures for the IC50 at STAT5a and against STAT5b were 2.48 ± 0.27 µM and 4.18 ± 0.25 µM, respectively.
Molecule `CC[C@H](C)[C@H](NC(=O)[C@H](CC(N)=O)NC(=O)[C@H](CCC(N)=O)NC(=O)[C@@H]1CCCN1C(=O)[C@H](CC(C)C)NC(=O)[C@H](Cc1ccc(OP(=O)(O)O)cc1)NC(=O)CNC(C)=O)C(=O)N[C@@H](CC(=O)O)C(=O)O` [Ac‐GpYLPQNID] (Ac-G[pY]LPQNID-OH) displayed an IC50 on STAT4 of 2.01 ± 0.08 µM.

As a reminder, the IC50 is the concentration that gives 50% inhibition. Read a low IC50 as greater potency in that assay.
